Patent US20160209428A1, “DIAGNOSTIC AND PREDICTIVE METABOLITE PATTERNS FOR DISORDERS AFFECTING THE BRAIN AND NERVOUS SYSTEM” (THE REGENTS OF THE UNIVERSITY OF CALIFORNIA, priority 2013, published 2016)

Legend:
[1] = tested on: cerebral synaptosomal protein; test: Western blot analysis of cerebral synaptosomal proteins, Fragile X model; type: in vivo, mouse; settings: Fmr1 KO mice
Source text: Twenty μg of cerebral synaptosomal protein was loaded in SDS-polyacrylamide gels (Bis-Tris Gels) and transferred to PVDF membranes. The blots were first stained with Ponceau S, scanned, and the transfer efficiency was quantified by densitometry before blocking with 3% skim milk, and probing with primary and secondary antibodies for signal development by enhanced chemiluminescence (ECL).

[2] = tested on: Fragile X (Fmr1) knockout mouse; test: Marble burying, Fragile X model; type: in vivo; settings: KO-Sal v KO-Sur
Experimental: Marble burying behavior was measured over 30 minutes by a modification of methods used by Thomas, et al. (Thomas et al., 2009). Marble burying was used as a measure of normal rodent digging behavior. Marble burying has sometimes been considered a measure of anxiety, however, comprehensive genetic and behavioral studies have shown that marble burying is a normal mouse behavior that is genetically determined (Thomas et al., 2009). Marble burying was diminished 38% in Fragile X knockout mice.

[3] = tested on: Fragile X (Fmr1) knockout mouse; test: Social preference and social novelty, Fragile X model; type: in vivo; settings: male Fmr1 KO mice, weekly suramin 20 mg/kg ip
Source text: A Fragile X (Fmr1) knockout mouse was used on the FVB strain background. It has the genotype: FVB.129P2-Pde6b^+ Tyr^c-ch Fmr1^tm1Cgr/J (Jackson Stock #004624). The Fmr1^tm1Cgr allele contains a neomycin resistance cassette replacing exon 5 that results in a null allele that makes no FMR mRNA or protein. The control strain used has the genotype: FVB.129P2-Pde6b^+ Tyr^c-ch/AntJ (Jackson Stock #004828). […] The wild-type Pde6b locus from the 129P2 ES cells corrects the retinal degeneration phenotype that produces blindness by 5 weeks of age in typical FVB mice. The Fmr1 locus is X-linked, so males are hemizygous and females are homozygous for the knockout. A metabolomic analysis on Fmr1 knockout mice on the C57BL/6J background was also performed to refine the understanding of which metabolic disturbances were directly related to the Fmr1 knockout, and which were the result of changes in genetic background. For these studies the same Fmr1^tm1Cgr knockout allele bred on the C57BL6/J background was used. These animals had the genotype: B6.129P2-Fmr1^tm1Cgr/J (Jackson Stock#003025). […]
Altered social behavior is a measure of autism-like features in mouse models of autism. […] There was also a 35% reduction in social novelty, as measured by the time spent interacting with a novel mouse compared to a familiar mouse. […]

[4] = tested on: maternal immune activation (MIA) mouse model; test: T-maze spontaneous alternation, MIA model; type: in vivo; settings: MIA animals
Experimental: Novelty preference was tested as spontaneous alternation behavior in the T-maze. […] (N=8-13, 5.25-month-old males per group).
Novelty preference is an innate feature of normal rodent and human behavior and a predictor of socialization and communication growth in children with ASD. The loss or suppression of novelty preference in children with ASD is associated with the phenomenon known as insistence on sameness. Preference for novelty was estimated as spontaneous alternation behavior in the T-maze. The T-maze can also be used to estimate spatial working memory, especially when food-motivated. […] These deficits were normalized after a single dose of suramin.

[5] = cerebral synaptosomes, suramin vs saline
[6] = cerebral synaptosomes, listed as suramin

**Q.** Which results are given for `Cc1ccc(C(=O)Nc2ccc(S(=O)(=O)O)c3cc(S(=O)(=O)O)cc(S(=O)(=O)O)c23)cc1NC(=O)c1cccc(NC(=O)Nc2cccc(C(=O)Nc3cc(C(=O)Nc4ccc(S(=O)(=O)O)c5cc(S(=O)(=O)O)cc(S(=O)(=O)O)c45)ccc3C)c2)c1` [Suramin, suramin]?
**A.** proteins interrogated in cerebral synaptosomes that were changed ([1]; suramin vs saline): 17 of 54; Response to Suramin KO-Sur/KO-Sal: 7-dehydrocholesterol reductase/7DHCR ([1]; cerebral synaptosomes): Up; Response to Suramin KO-Sur/KO-Sal: APC ([1]; cerebral synaptosomes): Down; Response to Suramin KO-Sur/KO-Sal: Acetyl-CoA acetyltransferase 2/ACAT2 ([1]; cerebral synaptosomes): None; Response to Suramin KO-Sur/KO-Sal: Akt ([1]; cerebral synaptosomes): decreased and Down; Response to Suramin KO-Sur/KO-Sal: Amyloid β (Aβ) precursor protein/APP ([1]; cerebral synaptosomes): Down; Response to Suramin KO-Sur/KO-Sal: C1qA ([1]; cerebral synaptosomes): Down; Response to Suramin KO-Sur/KO-Sal: CB1 ([1]; cerebral synaptosomes): Down; Response to Suramin KO-Sur/KO-Sal: CB2 ([1]; cerebral synaptosomes): unchanged and None; Response to Suramin KO-Sur/KO-Sal: CPY27A1 ([1]; cerebral synaptosomes): None; Response to Suramin KO-Sur/KO-Sal: Dopamine Receptor D4/D4R ([1]; cerebral synaptosomes): None; Response to Suramin KO-Sur/KO-Sal: ETFQO/ETFDH ([1]; cerebral synaptosomes): None; Response to Suramin KO-Sur/KO-Sal: Fragile X mental retardation protein/FMRP ([1]; cerebral synaptosomes): None; Response to Suramin KO-Sur/KO-Sal: GABA A Receptor beta 3/GABA-β3 ([1]; cerebral synaptosomes): None; Response to Suramin KO-Sur/KO-Sal: GluR1 ([1]; cerebral synaptosomes): Down; Response to Suramin KO-Sur/KO-Sal: HMGCoA Reductase/HMOCoAR ([1]; cerebral synaptosomes): None; Response to Suramin KO-Sur/KO-Sal: IP3R I ([1]; cerebral synaptosomes): Up; Response to Suramin KO-Sur/KO-Sal: Indoleamine 2,3-dioxygenase 1/IDO-1 ([1]; cerebral synaptosomes): None; Response to Suramin KO-Sur/KO-Sal: Metabotropic glutamate receptor 5/mGluR5 ([1]; cerebral synaptosomes): no effect and None; Response to Suramin KO-Sur/KO-Sal: Methionine Sulfoxide Reductase A/MSRA ([1]; cerebral synaptosomes): None; Response to Suramin KO-Sur/KO-Sal: Nicotinic Acetylcholine Receptor alpha 7/nAchR7 ([1]; cerebral synaptosomes): None; Response to Suramin KO-Sur/KO-Sal: Nitro Tyrosine ([1]; cerebral synaptosomes): None; Response to Suramin KO-Sur/KO-Sal: P2X1 ([1]; cerebral synaptosomes): None; Response to Suramin KO-Sur/KO-Sal: P2X2 ([1]; cerebral synaptosomes): None; Response to Suramin KO-Sur/KO-Sal: P2X3R ([1]; cerebral synaptosomes): Down; Response to Suramin KO-Sur/KO-Sal: P2X4 ([1]; cerebral synaptosomes): None; Response to Suramin KO-Sur/KO-Sal: P2X5 ([1]; cerebral synaptosomes): None; Response to Suramin KO-Sur/KO-Sal: P2X6 ([1]; cerebral synaptosomes): None; Response to Suramin KO-Sur/KO-Sal: P2X7 ([1]; cerebral synaptosomes): None; Response to Suramin KO-Sur/KO-Sal: P2Y1R ([1]; cerebral synaptosomes): Up; Response to Suramin KO-Sur/KO-Sal: P2Y2 ([1]; cerebral synaptosomes): None; Response to Suramin KO-Sur/KO-Sal: P2Y4 ([1]; cerebral synaptosomes): None; Response to Suramin KO-Sur/KO-Sal: PGC1a ([1]; cerebral synaptosomes): None; Response to Suramin KO-Sur/KO-Sal: PI3K ([1]; cerebral synaptosomes): decreased and Down; Response to Suramin KO-Sur/KO-Sal: PKC ([1]; cerebral synaptosomes): None; Response to Suramin KO-Sur/KO-Sal: PPAR beta/delta ([1]; cerebral synaptosomes): Up; Response to Suramin KO-Sur/KO-Sal: PPARa ([1]; cerebral synaptosomes): no effect and None; Response to Suramin KO-Sur/KO-Sal: Postsynaptic Density protein 95/PSD95 ([1]; cerebral synaptosomes): None; Response to Suramin KO-Sur/KO-Sal: Steroidogenic acute regulatory protein/StAR ([1]; cerebral synaptosomes): Up; Response to Suramin KO-Sur/KO-Sal: TAR DNA-binding protein 43/TDP43 ([1]; cerebral synaptosomes): Down; Response to Suramin KO-Sur/KO-Sal: TGFβ Receptor I ([1]; cerebral synaptosomes): None; Response to Suramin KO-Sur/KO-Sal: mTOR ([1]; cerebral synaptosomes): not observed and None; Response to Suramin KO-Sur/KO-Sal: nAchR beta2 ([1]; cerebral synaptosomes): None; Response to Suramin KO-Sur/KO-Sal: p-eIF2α(Ser51) ([1]; cerebral synaptosomes): None; Response to Suramin KO-Sur/KO-Sal: p-mTOR(ser2448) ([1]; cerebral synaptosomes): not observed and None; Response to Suramin KO-Sur/KO-Sal: pAkt(Ser473) ([1]; cerebral synaptosomes): None; Response to Suramin KO-Sur/KO-Sal: pAkt(Thr308) ([1]; cerebral synaptosomes): None; Response to Suramin KO-Sur/KO-Sal: pCAMKII(Thr286) ([1]; cerebral synaptosomes): None; Response to Suramin KO-Sur/KO-Sal: pERK1/2(Thr202/Tyr204) ([1]; cerebral synaptosomes): None; Response to Suramin KO-Sur/KO-Sal: pGSK3β (Ser9) ([1]; cerebral synaptosomes): Up; Response to Suramin KO-Sur/KO-Sal: pPERK(Thr980) ([1]; cerebral synaptosomes): None; Response to Suramin KO-Sur/KO-Sal: pPKC(Ser660) ([1]; cerebral synaptosomes): None; Response to Suramin KO-Sur/KO-Sal: pS6K(Thr389) ([1]; cerebral synaptosomes): Up; Response to Suramin KO-Sur/KO-Sal: pSTAT3(ser727) ([1]; cerebral synaptosomes): None; decrease of CB1 receptor expression [1, 5]: 16%; decrease of P2X3 receptor expression [1, 5]: 18%; decrease of ionotropic GluR1 expression [1, 5]: 15%; decrease of synaptosomal APP levels [1, 5]: 23%; decrease of synaptosomal C1qA [1, 5]: 24%; decrease of synaptosomal TDP43 [1, 5]: 27%; decrease of total APC expression [1, 5]: 29%; increase in IP3R1 expression [1, 5]: 101%; increase of 7-dehydrocholesterol reductase (7DHCR) [1, 5]: 24%; increase of P2Y1 receptor expression [1, 5]: 31%; increase of inhibitory phosphorylation of S6 kinase (S6K) [1, 5]: 47%; increase of inhibitory phosphorylation of glycogen synthase kinase 3β (GSK3β) [1, 5]: 75%; increase of steroidogenic acute regulatory (StAR) protein [1, 5]: 165%; Response to Suramin KO-Sur/KO-Sal: Nicotinic Acetylcholine Receptor alpha 7/nAchR7 [1, 6]: No effect; Response to Suramin KO-Sur/KO-Sal: P2X7 [1, 6]: No effect; Response to Suramin KO-Sur/KO-Sal: P2Y2 [1, 6]: No effect; Response to Suramin KO-Sur/KO-Sal: pCAMKII(Thr286) [1, 6]: No effect; Response to Suramin KO-Sur/KO-Sal: pERK1/2(Thr202/Tyr204) [1, 6]: No effect; increase of PPARβ expression ([1]; purified brain synaptosomes, suramin vs saline): 34%; diminished marble burying [2]: improved; altered social behavior (social preference, social novelty) [3]: corrected; novelty preference five weeks after suramin washout ([4]; 5 weeks after single dose): no residual benefit remained; deficient novelty preference (spontaneous alternation in T-maze) ([4]; single dose of suramin): normalized
